Experimental findings from article PMC9481570, “A small molecule antagonist of SMN disrupts the interaction between SMN and RNAP II” (Nature Communications, 2022) are described below.

What all share (assay): Affinity-purification and mass spectrometry (AP-MS) chemical proteomics, all proteins;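 on Difference: 200 µM free competitor with 20 µM biotin probe overnight in lysate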
Common to all, as to assay type: binding

Experiment [1] addresses T1, proteins displaced from immobilized biotin-Cmpd 1 pulldowns (U2OS cell lysate) (Homo sapiens, UniProt P19367).
T1 construct: endogenous in cells; host or cells: U2OS
Conditions: GN=HK1 (P19367). Here is the method: (§1) The samples for AP-MS were prepared following pulldown procedure as previously described with minor modifications. Briefly, U2OS cells were lysed in RIPA buffer and the cell lysate was equally divided into two groups: (1) DMSO group (control group): the cell lysate was incubated with 20 μM biotin-labeled compound 1; (2) Cpmd 1 group (sample group): the cell lysate was incubated with 20 μM biotin-labeled compound 1 and 200 μM free compound 1. Each group contains three biological replicates. They were incubated overnight at 4 °C, then 30 μL streptavidin beads (Thermo Fisher, 20353) was added and incubated at 4 °C for 1 h. The beads were then washed with RIPA buffer for 3 times, 10 min/time.
(§2) Beads were rinsed twice with 50 mM TEAB, pH 7.55, before eluting proteins with 25 μL of 5% SDS, 50 mM TEAB, pH 7.55. The sample was then centrifuged at 17,000 × g for 10 min to remove any debris. Proteins were reduced with 20 mM TCEP (Thermo Fisher, 77720) and incubated at 65 °C for 30 min. The sample was cooled to room temperature and 1 μL of 0.5 M iodoacetamide acid was added and allowed to react for 20 min in dark. Phosphoric acid (12%, 2.75 μL) was added to the protein solution, followed by adding 165 μL of binding buffer (90% methanol, 100 mM TEAB, pH 7.1). The resulting solution was added to S-Trap spin column (protifi.com) and passed through the column using a bench top centrifuge (30 s spin at 4000 × g). The spin column was washed with 400 μL of binding buffer and centrifuged. This step was repeated two more times. Then trypsin was added to the protein mixture at a mass ratio of 1:25 in 50 mM TEAB, pH 8.0, and the sample was incubated at 37 °C for 4 h. Peptides were eluted with 80 μL of 50 mM TEAB, followed by 80 μL of 0.2% formic acid, and finally 80 μL of 50% acetonitrile, 0.2% formic acid. The combined peptide solution was then dried in a speed vac and resuspended in 2% acetonitrile, 0.1% formic acid, 97.9% water and placed in an autosampler vial.
(§3) Samples were analyzed by nanoLC-MS/MS (nanoRSLC, Thermo Fisher) using an Aurora series (Ion Opticks) reversed phase HPLC column (25 cm length × 75 µm inner diameter) and directly injected to an Orbitrap Eclipse (Thermo Fisher) using a 120 min gradient (mobile phase A = 0.1% formic acid, mobile phase B = 99.9% acetonitrile with 0.1% formic acid; hold 2% B for 5 min, 2–6% B in 0.1 min, 6–25% in 100 min, 25–50% in 15 min) at a flow rate of 350 nL/min. Eluted peptide ions were analyzed using a data-dependent acquisition (DDA) method with resolution settings of 120,000 and 15,000 (at m/z 200) for MS1 and MS2 scans, respectively. DDA-selected peptides were fragmented using stepped high energy collisional dissociation (27, 32, and 37%).
(§4) The data of AP-MS were analyzed as a previously described method with minor modifications. Briefly, the raw MS files were searched with MaxQuant software (version 1.6.1.1, www.maxquant.org)[56] against the UniProt human protein database (www.uniprot.org) concatenated with common contaminants and the decoy database. The mass tolerance for precursor ions was set to 20 ppm and 4.5 ppm for the first and main search, respectively. The cysteine carbamidomethylation was set as fixed modification and methionine oxidation and N-terminal acetylation as variable modifications. Enzyme specificity was set to trypsin and a maximum missed cleavage was set as 2. The 1% false discovery rate (FDR) at both peptide and protein levels was applied for the analysis. Relative protein quantification was based on the label-free quantification incorporated in the MaxQuant software. The iBAQ intensity of proteins was obtained for the control and experimental samples. The missing iBAQ intensity was replaced by a random number, which was calculated from a normal distribution with a width of 0.3 and a downshift of 1.8 defined by Perseus software (version 1.6.5.0). The P-value was calculated by performing two-sample Student’s t-test. […]

Experiment [2] addresses T2, proteins displaced from immobilized biotin-Cmpd 1 pulldowns (U2OS cell lysate) (Homo sapiens, UniProt Q04837).
T2 construct: endogenous in cells; host or cells: U2OS
Particulars: GN=SSBP1 (Q04837). Here is the method: as §1, §2, §3, §4

In experiment [3] the target is T3, proteins displaced from immobilized biotin-Cmpd 1 pulldowns (U2OS cell lysate) (Homo sapiens, UniProt P56537).
T3 construct: endogenous in cells; host or cells: U2OS
Conditions: GN=EIF6 (P56537). Here is the method: as §1, §2, §3, §4

Experiment [4] deals with T4, proteins displaced from immobilized biotin-Cmpd 1 pulldowns (U2OS cell lysate) (Homo sapiens, UniProt P40939).
T4 construct: endogenous in cells; host or cells: U2OS
T4 sequence (P40939 37-763): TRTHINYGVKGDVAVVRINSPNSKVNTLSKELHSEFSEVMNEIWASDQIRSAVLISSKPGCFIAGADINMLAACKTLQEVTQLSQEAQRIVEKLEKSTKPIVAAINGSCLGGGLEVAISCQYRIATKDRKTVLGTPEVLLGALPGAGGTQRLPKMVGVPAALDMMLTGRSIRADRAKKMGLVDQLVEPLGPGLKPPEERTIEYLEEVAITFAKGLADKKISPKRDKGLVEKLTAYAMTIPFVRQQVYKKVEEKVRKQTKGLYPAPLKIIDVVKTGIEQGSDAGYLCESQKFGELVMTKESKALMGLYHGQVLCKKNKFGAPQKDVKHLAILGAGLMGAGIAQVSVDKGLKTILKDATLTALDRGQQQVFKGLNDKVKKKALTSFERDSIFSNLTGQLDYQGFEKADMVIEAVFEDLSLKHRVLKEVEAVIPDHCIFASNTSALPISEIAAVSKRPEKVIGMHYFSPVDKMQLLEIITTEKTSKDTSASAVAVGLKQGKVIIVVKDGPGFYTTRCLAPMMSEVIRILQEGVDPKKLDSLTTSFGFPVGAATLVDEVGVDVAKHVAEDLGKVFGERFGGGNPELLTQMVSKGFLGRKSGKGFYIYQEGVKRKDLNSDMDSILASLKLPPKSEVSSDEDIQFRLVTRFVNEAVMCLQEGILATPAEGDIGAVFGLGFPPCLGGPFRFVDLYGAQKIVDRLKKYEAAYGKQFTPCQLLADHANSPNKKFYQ
Conditions: GN=HADHA (P40939). As to the method: as §1, §2, §3, §4

The target of experiment [5] is T5, proteins displaced from immobilized biotin-Cmpd 1 pulldowns (U2OS cell lysate) (Homo sapiens, UniProt O75616).
T5 construct: endogenous in cells; host or cells: U2OS
T5 sequence (O75616 44-437): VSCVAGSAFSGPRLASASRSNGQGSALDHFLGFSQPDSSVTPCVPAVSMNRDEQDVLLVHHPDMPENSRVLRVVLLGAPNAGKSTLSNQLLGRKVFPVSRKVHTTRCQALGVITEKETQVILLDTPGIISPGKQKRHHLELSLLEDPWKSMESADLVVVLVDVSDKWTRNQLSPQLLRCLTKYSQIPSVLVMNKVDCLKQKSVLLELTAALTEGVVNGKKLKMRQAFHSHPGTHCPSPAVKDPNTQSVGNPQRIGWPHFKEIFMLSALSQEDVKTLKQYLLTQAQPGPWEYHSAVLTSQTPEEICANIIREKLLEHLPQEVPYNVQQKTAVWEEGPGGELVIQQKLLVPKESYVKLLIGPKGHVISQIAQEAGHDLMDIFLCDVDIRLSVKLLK
Particulars: GN=ERAL1 (O75616). As to the method:
as §1, §2, §3, §4

For experiment [6], the target named is T6, proteins displaced from immobilized biotin-Cmpd 1 pulldowns (U2OS cell lysate) (Homo sapiens, UniProt O75683).
T6 construct: endogenous in cells; host or cells: U2OS
T6 sequence (O75683 whole entry): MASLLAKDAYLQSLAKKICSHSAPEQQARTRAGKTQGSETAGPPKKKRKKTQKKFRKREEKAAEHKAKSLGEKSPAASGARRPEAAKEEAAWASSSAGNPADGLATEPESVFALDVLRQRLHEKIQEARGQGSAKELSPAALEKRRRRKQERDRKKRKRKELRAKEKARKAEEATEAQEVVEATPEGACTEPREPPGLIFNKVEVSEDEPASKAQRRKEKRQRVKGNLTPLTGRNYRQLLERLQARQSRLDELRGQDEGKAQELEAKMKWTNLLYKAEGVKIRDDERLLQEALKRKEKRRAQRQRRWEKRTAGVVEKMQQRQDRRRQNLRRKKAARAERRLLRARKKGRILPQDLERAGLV
Conditions: GN=SURF6 (O75683). As to the method: as §1, §2, §3, §4

Experiment [7] has as its target T7, proteins displaced from immobilized biotin-Cmpd 1 pulldowns (U2OS cell lysate) (Homo sapiens, UniProt P01040).
T7 construct: endogenous in cells; host or cells: U2OS
Conditions: GN=CSTA (P01040). As to the method: as §1, §2, §3, §4

In experiment [8] the target is T8, proteins displaced from immobilized biotin-Cmpd 1 pulldowns (U2OS cell lysate) (Homo sapiens, UniProt P01876).
T8 construct: endogenous in cells; host or cells: U2OS
T8 sequence (P01876 whole entry): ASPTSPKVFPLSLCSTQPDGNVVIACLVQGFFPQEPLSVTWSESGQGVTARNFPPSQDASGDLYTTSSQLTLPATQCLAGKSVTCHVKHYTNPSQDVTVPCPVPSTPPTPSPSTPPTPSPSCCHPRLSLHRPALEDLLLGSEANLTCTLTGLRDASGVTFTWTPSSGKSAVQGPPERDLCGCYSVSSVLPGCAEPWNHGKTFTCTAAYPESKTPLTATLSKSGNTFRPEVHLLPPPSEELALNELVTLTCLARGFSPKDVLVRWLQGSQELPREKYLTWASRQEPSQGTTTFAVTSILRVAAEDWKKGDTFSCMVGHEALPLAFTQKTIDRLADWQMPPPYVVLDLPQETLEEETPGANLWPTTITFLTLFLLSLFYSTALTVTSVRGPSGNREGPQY
Particulars: GN=IGHA1 (P01876). As to the method:
as §1, §2, §3, §4

Experiment [9] addresses T9, proteins displaced from immobilized biotin-Cmpd 1 pulldowns (U2OS cell lysate) (Homo sapiens, UniProt Q96EY1).
T9 construct: endogenous in cells; host or cells: U2OS
Conditions: GN=DNAJA3 (Q96EY1). As to the method:
as §1, §2, §3, §4

Experiment [10] deals with T10, proteins displaced from immobilized biotin-Cmpd 1 pulldowns (U2OS cell lysate) (Homo sapiens, UniProt P05109).
T10 construct: endogenous in cells; host or cells: U2OS
T10 sequence (P05109 whole entry): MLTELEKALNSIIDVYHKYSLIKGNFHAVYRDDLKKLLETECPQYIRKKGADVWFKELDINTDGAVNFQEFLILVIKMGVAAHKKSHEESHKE
Particulars: GN=S100A8 (P05109). As to the method:
as §1, §2, §3, §4

Several values for one entry are separate records, joined by “and”; a condition that tells them apart may be missing. Equal entries are not always repeated.

T9 sequence (Q96EY1 whole entry): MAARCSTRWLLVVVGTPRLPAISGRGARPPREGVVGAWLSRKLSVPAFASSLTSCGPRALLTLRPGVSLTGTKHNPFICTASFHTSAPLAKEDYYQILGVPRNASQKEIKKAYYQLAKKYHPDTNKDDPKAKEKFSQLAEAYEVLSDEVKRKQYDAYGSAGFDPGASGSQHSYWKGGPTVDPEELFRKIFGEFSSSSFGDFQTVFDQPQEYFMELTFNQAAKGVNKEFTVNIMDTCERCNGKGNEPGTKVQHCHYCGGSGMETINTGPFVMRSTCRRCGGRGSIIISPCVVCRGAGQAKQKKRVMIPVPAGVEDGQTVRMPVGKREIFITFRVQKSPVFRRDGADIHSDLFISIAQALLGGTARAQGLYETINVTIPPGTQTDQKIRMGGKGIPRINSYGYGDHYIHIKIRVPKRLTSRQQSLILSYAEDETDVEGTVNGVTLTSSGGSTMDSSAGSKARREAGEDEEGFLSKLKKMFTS
T2 sequence (Q04837 17-148): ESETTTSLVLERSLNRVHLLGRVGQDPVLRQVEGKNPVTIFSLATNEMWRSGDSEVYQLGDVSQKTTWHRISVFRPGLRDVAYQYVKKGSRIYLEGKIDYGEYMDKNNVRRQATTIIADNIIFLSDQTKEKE
T7 sequence (P01040 whole entry): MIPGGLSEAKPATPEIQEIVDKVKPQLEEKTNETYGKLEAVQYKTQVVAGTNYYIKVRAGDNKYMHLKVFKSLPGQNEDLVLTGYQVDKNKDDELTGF
T1 sequence (P19367 whole entry): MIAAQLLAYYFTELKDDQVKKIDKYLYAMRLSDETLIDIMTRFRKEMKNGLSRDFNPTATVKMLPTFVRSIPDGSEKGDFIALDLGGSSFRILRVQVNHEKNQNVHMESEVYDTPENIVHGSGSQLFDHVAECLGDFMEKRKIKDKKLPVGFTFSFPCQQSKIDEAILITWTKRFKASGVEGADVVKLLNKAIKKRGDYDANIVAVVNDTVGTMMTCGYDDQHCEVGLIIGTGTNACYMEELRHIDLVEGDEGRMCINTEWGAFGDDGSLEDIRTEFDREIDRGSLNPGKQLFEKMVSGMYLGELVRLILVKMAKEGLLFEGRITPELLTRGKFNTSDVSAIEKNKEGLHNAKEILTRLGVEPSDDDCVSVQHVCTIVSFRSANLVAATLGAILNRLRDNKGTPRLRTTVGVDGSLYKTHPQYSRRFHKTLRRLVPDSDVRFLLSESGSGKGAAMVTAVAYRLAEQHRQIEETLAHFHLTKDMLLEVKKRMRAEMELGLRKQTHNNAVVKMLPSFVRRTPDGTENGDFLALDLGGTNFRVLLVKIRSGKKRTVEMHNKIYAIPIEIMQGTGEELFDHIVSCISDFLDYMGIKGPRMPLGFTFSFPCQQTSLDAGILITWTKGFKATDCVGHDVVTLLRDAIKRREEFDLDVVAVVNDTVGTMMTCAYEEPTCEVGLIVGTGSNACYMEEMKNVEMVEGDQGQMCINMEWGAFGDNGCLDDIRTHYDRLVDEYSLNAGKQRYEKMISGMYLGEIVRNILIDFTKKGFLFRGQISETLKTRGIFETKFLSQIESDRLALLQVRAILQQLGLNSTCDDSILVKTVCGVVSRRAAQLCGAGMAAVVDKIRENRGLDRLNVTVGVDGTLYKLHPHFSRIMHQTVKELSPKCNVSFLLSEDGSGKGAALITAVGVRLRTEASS

As for `Cn1c2c(c(=N)c3c1CCC3)CCC2` [Compound 1, 4-methyl-2,3,4,5,6,7-hexahydrodicyclopenta[b,e]pyridin-8(1H)-imine], the Difference in [1] (Cmpd minus DMSO, -LOG(P-value) 0.855582) is reported as 0.9514; in experiment [2] (Cmpd minus DMSO, -LOG(P-value) 1.29916), 1.094; in [3] (Cmpd minus DMSO, -LOG(P-value) 0.868477) it was -1.064; in experiment [4] (Cmpd minus DMSO, -LOG(P-value) 0.714126) it was 0.947; in experiment [5] (Cmpd minus DMSO, -LOG(P-value) 0.929321), 2.334; in experiment [6] (Cmpd minus DMSO, -LOG(P-value) 1.38004), 2.68. Also, the Difference in experiment [7] (Cmpd minus DMSO, -LOG(P-value) 0.909034) is -0.9866; in [8] (Cmpd minus DMSO, -LOG(P-value) 0.808053), -3.043; in experiment [9] (Cmpd minus DMSO, -LOG(P-value) 0.746444) it was 0.8281; in experiment [10] (Cmpd minus DMSO, -LOG(P-value) 1.46412), -2.055. In addition, the “iBAQ Cmpd” value in experiment [1] (replicates 1-3) was 18.5229 and 17.0452 and 17.0803; in experiment [2] (replicates 1-3), 21.1032 and 19.9004 and 20.5342; in experiment [3] (replicates 1-3), 20.5029 and 19.445 and 19.2006; in experiment [4] (replicates 1-3), 19.348 and 18.8178 and 18.412; in experiment [5] (replicates 1-3), 17.6381 and 15.7018 and 17.9385; in experiment [6] (replicates 1-3), 19.6513 and 20.3325 and 21.9506. For the same compound, the “iBAQ Cmpd” value in [7] (replicates 1-3) was 23.1983 and 23.5243 and 22.4826; in [8] (replicates 1-3), 18.0352 and 17.6842 and 20.2605; in [9] (replicates 1-3), 17.7043 and 17.5809 and 17.383; in [10] (replicates 1-3) it was 21.5375 and 20.6129 and 20.1927.
